Read-outs that look alike come from different tables or passages of the source.
Tests used:
CRTH2 = CRTH2 (Homo sapiens (Human), UniProt Q9Y5Y4); test: CRTH2 receptor binding inhibitory activity ([3H]-PGD2 displacement, membranes of CRTH2-expressing K562 cell); conditions: [3H]-PGD2 displacement, membrane of CRTH2-expressing K562 cell, read-out: Ki
Protocol: Cell membrane was prepared from CRTH2-expressing K562 cell. The cell membrane (20 μg/well) was mixed with reaction buffer (50 mM Tris/HCl, pH 7.4, 10 mM MgCl2). Then, [^3H]-PGD2 was added to the mixture and incubated for 60 min at room temperature. […] Then, the mixture was filtrated with glass paper immediately. The filter paper was washed several times and radio activity on the filter was measured. Specific binding was defined as difference between total and non-specific binding (radio activity with 10 μM PGD2). Ki values for each compound were calculated from displacement curve.

Human DP1 receptor = Human DP1 receptor (Homo sapiens (Human), UniProt Q13258); test: Human DP1 inhibitory activity in DP1-expressing cell (PGD2-induced cAMP); type: cell-based; conditions: category of cAMP IC50, human DP1 receptor expressing Jurkut cell
Protocol: Compounds were categorized as AA (cAMP is less than 100 nM) and A (cAMP is more than 100 nM and less than 5000 nM) as shown in Table 99 and 100.

[1] = CRTH2 receptor binding, categorized AAAA/AAA

Human DP1 receptor, sequence (Q13258 whole entry): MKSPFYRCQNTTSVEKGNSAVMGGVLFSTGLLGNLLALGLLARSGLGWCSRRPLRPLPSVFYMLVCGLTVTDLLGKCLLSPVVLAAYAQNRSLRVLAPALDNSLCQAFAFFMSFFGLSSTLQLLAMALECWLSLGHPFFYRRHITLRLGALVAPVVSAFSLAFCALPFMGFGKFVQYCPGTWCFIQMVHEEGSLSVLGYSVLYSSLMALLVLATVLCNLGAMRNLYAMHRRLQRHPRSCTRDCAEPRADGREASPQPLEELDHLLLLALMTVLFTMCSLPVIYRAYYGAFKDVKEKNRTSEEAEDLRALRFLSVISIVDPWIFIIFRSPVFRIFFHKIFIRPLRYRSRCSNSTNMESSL
CRTH2, sequence (Q9Y5Y4 whole entry): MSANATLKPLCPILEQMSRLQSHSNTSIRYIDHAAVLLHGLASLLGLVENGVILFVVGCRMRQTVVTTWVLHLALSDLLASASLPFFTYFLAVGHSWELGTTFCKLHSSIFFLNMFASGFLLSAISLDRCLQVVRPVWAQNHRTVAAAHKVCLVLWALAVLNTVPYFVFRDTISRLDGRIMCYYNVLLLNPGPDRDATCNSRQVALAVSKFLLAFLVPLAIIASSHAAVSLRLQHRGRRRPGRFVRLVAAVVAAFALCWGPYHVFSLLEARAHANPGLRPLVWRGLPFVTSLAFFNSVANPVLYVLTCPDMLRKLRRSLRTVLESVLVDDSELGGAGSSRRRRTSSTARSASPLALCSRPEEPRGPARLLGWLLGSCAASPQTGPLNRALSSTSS

| SMILES | Ki (CRTH2; [1]) [nM] | Ki (CRTH2) [nM] | IC50 (Human DP1 receptor) [nM] |
| --- | --- | --- | --- |
| CNC(=O)[C@@H]1C[C@@H](n2nc(CC(=O)O)c3ccc(F)cc32)CN1S(=O)(=O)c1ccc(OC(C)C)cc1 [Compound I-4] | 100 to 5000 | 320 | 100 to 5000 |
| CC(C)Oc1ccc(S(=O)(=O)N2C[C@H](n3nc(CC(=O)O)c4ccc(F)cc43)C[C@@H]2c2ccccn2)cc1 [Compound I-351] | 100 to 5000 |  | 100 to 5000 |
| CC(C)Oc1ccc(S(=O)(=O)N2C[C@H](n3nc(CC(=O)O)c4ccc(F)cc43)C[C@@H]2COCCCO)cc1 [Compound I-342] | 100 to 5000 |  | 100 to 5000 |
| COc1ccc(S(=O)(=O)N2C[C@@H](C)[C@@H](n3nc(CC(=O)O)c4ccc(F)cc43)C2)c(F)c1 [Compound I-233] | < 100 |  | < 100 |
| CCOc1ccc(S(=O)(=O)N2C[C@@H](C)[C@@H](n3nc(CC(=O)O)c4ccccc43)C2)nc1 [Compound I-247] | < 100 | 15 | 100 to 5000 |
| CC(C)Oc1ccc(S(=O)(=O)N2C[C@@H](C)[C@@H](n3nc(CC(=O)O)c4ccccc43)C2)cn1 [Compound I-99] | < 100 |  | < 100 |
| CCOc1ccc(S(=O)(=O)N2C[C@@H](C)[C@@H](n3nc(CC(=O)O)c4ccccc43)C2)c(C#N)c1 [Compound I-200] | < 100 |  | < 100 |
| CCOc1ccc(S(=O)(=O)N2C[C@@H](C)[C@@H](n3nc(CC(=O)O)c4ccc(OC)cc43)C2)cn1 [Compound I-226] | < 100 |  | 100 to 5000 |
| CCOc1ccc(S(=O)(=O)N2C[C@H](n3nc(CC(=O)O)c4ccccc43)[C@H](C)[C@H]2C#N)cc1 [Compound I-332] | < 100 |  | 100 to 5000 |
| CC(C)Oc1ccc(S(=O)(=O)N2C[C@H](n3nc(CC(=O)O)c4ccc(F)cc43)C[C@@H]2c2ncc[nH]2)cc1 [Compound I-363] | 100 to 5000 | 170 | 100 to 5000 |
| C=C[C@@H]1CN(S(=O)(=O)c2ccc(OC(C)C)cc2)C[C@@H]1n1nc(CC(=O)O)c2ccc(F)cc21 [Compound I-38] | < 100 |  | < 100 |
| CCOc1ccc(S(=O)(=O)N2C[C@@H](n3nc(CC(=O)O)c4ccccc43)[C@H](C)[C@H]2C#N)cc1 [Compound I-294] | 100 to 5000 |  | 100 to 5000 |
| CCOc1ccc(S(=O)(=O)N2C[C@@H](C)[C@@H](n3nc(CC(=O)O)c4ccc(C)cc43)C2)c(F)c1 [Compound I-237] | < 100 |  | < 100 |
| CC(C)Oc1ccc(S(=O)(=O)N2C[C@H](n3nc(CC(=O)O)c4ccc(F)cc43)C[C@@H]2CS(C)(=O)=O)cc1 [Compound I-355] | 100 to 5000 |  | 100 to 5000 |
| CCc1ccc(S(=O)(=O)N2C[C@@H](C)[C@@H](n3nc(CC(=O)O)c4ccc(C(F)(F)F)cc43)C2)cc1 [Compound I-126] | < 100 |  | < 100 |
| CC(C)Oc1ccc(S(=O)(=O)N2C[C@H](n3nc(CC(=O)O)c4ccc(F)cc43)CC2c2cccnc2)cc1 (some centres unmarked) [Compound I-345] | 100 to 5000 |  | 100 to 5000 |
| CCOc1ccc(S(=O)(=O)N2C[C@@H](n3nc(CC(=O)O)c4ccccc43)[C@@H]3COC[C@@H]32)cc1 [Compound I-367] | 100 to 5000 | 100 |  |
| CC(C)Oc1ccc(S(=O)(=O)N2C[C@H](n3nc(CC(=O)O)c4ccc(F)cc43)C[C@@H]2C(F)F)cc1 [Compound I-22] | < 100 |  | < 100 |
| CCOc1ccc(S(=O)(=O)N2C[C@@H](C)[C@@H](n3nc(CC(=O)O)c4ccccc43)C2)c(COC)c1 [Compound I-184] | < 100 |  | 100 to 5000 |
| CCOc1ccc(S(=O)(=O)N2C[C@@H](C)[C@@H](n3nc(CC(=O)O)c4ccc(C(F)(F)F)cc43)C2)cn1 [Compound I-132] | < 100 |  | < 100 |
| CCCCOc1ccc(S(=O)(=O)N2C[C@@H](C)[C@@H](n3nc(CC(=O)O)c4ccccc43)C2)cc1 [Compound I-151] | < 100 |  | < 100 |
| CCOc1ccc(S(=O)(=O)N2C[C@@H](C)[C@@H](n3nc(CC(=O)O)c4ccccc43)C2)c(CCCO)c1 [Compound I-280] | < 100 | 7.8 | 100 to 5000 |
| COc1ccc(S(=O)(=O)N2C[C@@H](C)[C@@H](n3nc(CC(=O)O)c4ccccc43)C2)cc1 [Compound I-241] | < 100 |  | < 100 |
| C[C@]1(O)CN(S(=O)(=O)c2ccc(F)cc2)C[C@@H]1n1nc(CC(=O)O)c2ccccc21 [Compound I-158] | < 100 |  | 100 to 5000 |
| CC(C)Oc1ccc(S(=O)(=O)N2C[C@H](n3nc(CC(=O)O)c4ccc(F)cc43)C[C@@H]2Cc2ccccc2)cc1 [Compound I-348] | < 100 |  | < 100 |
| CC(C)Oc1ccc(S(=O)(=O)N2C[C@@H](C)[C@@H](n3nc(CC(=O)O)c4cccc(Cl)c43)C2)cc1 [Compound I-61] | < 100 |  | 100 to 5000 |
| CCc1ccc(S(=O)(=O)N2C[C@@H](C)[C@@H](n3nc(CC(=O)O)c4ccc(C)cc43)C2)cc1 [Compound I-232] | < 100 |  | < 100 |

| SMILES | Ki (CRTH2; [1]) [nM] | Ki (CRTH2) [nM] | IC50 (Human DP1 receptor) [nM] |
| --- | --- | --- | --- |
| CCOc1ccc(S(=O)(=O)N2C[C@@H](C)[C@@H](n3nc(CC(=O)O)c4ccc(Cl)cc43)C2)cc1 [Compound I-137] | < 100 |  | < 100 |
| CC(C)Oc1ccc(S(=O)(=O)N2C[C@@H](C)[C@H](n3nc(CC(=O)O)c4ccccc43)C2)cc1 [Compound I-199] | 100 to 5000 |  | 100 to 5000 |
| CC(C)Oc1ccc(S(=O)(=O)N2C[C@@H](C)[C@@H](n3nc(CC(=O)O)c4cc(F)ccc43)C2)cc1 [Compound I-69] | 100 to 5000 |  | < 100 |
| COc1ccc(S(=O)(=O)N2C[C@@H](C)[C@@H](n3nc(CC(=O)O)c4ccc(C)cc43)C2)s1 [Compound I-180] | < 100 |  | 100 to 5000 |
| CC(C)Oc1ccc(S(=O)(=O)N2C[C@H](n3nc(CC(=O)O)c4ccc(F)cc43)C[C@H]2c2ccccn2)cc1 [Compound I-357] | 100 to 5000 |  | 100 to 5000 |
| CC(C)Oc1ccc(S(=O)(=O)N2C[C@H](n3nc(CC(=O)O)c4ccc(F)cc43)C[C@@H]2COc2cccc(I)c2)cc1 [Compound I-295] | 100 to 5000 |  | < 100 |
| C[C@@H]1CN(S(=O)(=O)c2ccc(OC(F)F)cc2)C[C@@H]1n1nc(CC(=O)O)c2ccccc21 [Compound I-98] | < 100 |  | < 100 |
| CC(C)Oc1ccc(S(=O)(=O)N2C[C@H](n3nc(CC(=O)O)c4ccc(F)cc43)C[C@@H]2COc2ccc(F)cc2)cc1 [Compound I-366] | 100 to 5000 |  | < 100 |
| CC(C)Oc1ccc(S(=O)(=O)N2C[C@H](n3nc(CC(=O)O)c4ccc(F)cc43)C[C@H]2c2ccccc2)cc1 [Compound I-359] | < 100 |  | 100 to 5000 |
| Cc1ccc(S(=O)(=O)N2C[C@@H](C)[C@@H](n3nc(CC(=O)O)c4ccc(F)cc43)C2)cc1 [Compound I-117] | < 100 | 1.6 | 100 to 5000 |
| C[C@]1(F)CN(S(=O)(=O)c2ccc(F)cc2)C[C@@H]1n1nc(CC(=O)O)c2ccccc21 (racemic) [Compound I-227] | < 100 |  | 100 to 5000 |
| COc1ccc2c(CC(=O)O)nn([C@H]3CN(S(=O)(=O)c4ccc(OC(C)C)cc4)C[C@H]3C)c2c1 [Compound I-204] | < 100 |  | < 100 |
| CCc1ccc(S(=O)(=O)N2C[C@@H](C)[C@@H](n3nc(CC(=O)O)c4ccc(Cl)cc43)C2)cc1 [Compound I-141] | < 100 |  | < 100 |
| Cc1ccc2c(CC(=O)O)nn([C@H]3CN(S(=O)(=O)c4ccc(OC(C)C)cc4)C[C@@]3(C)F)c2c1 [Compound I-89] |  |  | < 100 |
| CC(C)Oc1ccc(S(=O)(=O)N2C[C@H](C)[C@@H](n3nc(CC(=O)O)c4cccc(F)c43)C2)cc1 [Compound I-70] | < 100 |  |  |
| CC(C)Oc1ccc(S(=O)(=O)N2C[C@H](n3nc(CC(=O)O)c4ccc(F)cc43)C[C@@H]2COc2ccccn2)cc1 [Compound I-339] |  |  | 100 to 5000 |
| CC(C)Oc1ccc(S(=O)(=O)N2C[C@H](n3nc(CC(=O)O)c4ccc(F)cc43)C[C@@H]2COc2ccccc2F)cc1 [Compound I-340] |  |  | 100 to 5000 |
| CC(C)Oc1ccc(S(=O)(=O)N2C[C@H](n3nc(CC(=O)O)c4ccc(F)cc43)C[C@@H]2COCC(O)CO)cc1 (some centres unmarked) [Compound I-281] |  |  | 100 to 5000 |
| CCOc1ccc(S(=O)(=O)N2C[C@@H](n3nc(CC(=O)O)c4ccc(F)cc43)[C@@H](C)[C@@H]2C(N)=O)cc1 [Compound I-154] |  |  | 100 to 5000 |
| CCOc1ccc(S(=O)(=O)N2C[C@@H](C)[C@@H](n3nc(C(F)C(=O)O)c4ccccc43)C2)cc1 (some centres unmarked) [Compound I-337] |  |  | 100 to 5000 |
| CCOc1ccc(S(=O)(=O)N2C[C@@H](C)[C@@H](n3nc(CC(=O)OC(C)C)c4ccccc43)C2)cc1 [Compound I-257] |  |  | 100 to 5000 |
| CCOc1ccc(S(=O)(=O)N2C[C@H](n3nc(CC(=O)O)c4ccccc43)C[C@H]2C(N)=O)cc1 [Compound I-321] |  |  | 100 to 5000 |
| CCOc1ccc(S(=O)(=O)N2C[C@@H](C)[C@@H](n3nc(C(C)(C)C(=O)O)c4ccccc43)C2)cc1 [Compound I-335] |  |  | < 100 |
| CCOc1ccc(S(=O)(=O)N2C[C@H](n3nc(CC(=O)O)c4ccccc43)[C@@](C)(F)C2)cc1 [Compound I-309] |  |  | < 100 |
| CC(C)Oc1ccc(S(=O)(=O)N2C[C@@H](C)[C@@H](n3nc(CC(=O)O)c4ccc(Cl)cc43)C2)cc1 [Compound I-33] |  | 2.1 |  |
| CCOc1ccc(S(=O)(=O)N2C[C@@H](C)[C@@H](n3nc(C(C)(OC)C(=O)O)c4ccccc43)C2)cc1 (some centres unmarked) [Compound I-286] |  |  | < 100 |

Source: US9725442B2, “Heterocyclic derivative having PGD2 receptor antagonist activity” (Shionogi & Co., Ltd., priority 2011, dated 2017)
